Reference: patent US9783543B2, “Aminoimidazopyridazines” (BAYER PHARMA AKTIENGESELLSCHAFT, priority 2012, dated 2017)
Where two headings read alike, the source gives them in different places.

Key:
[1] = biological target: human full-length MKNK1 (Homo sapiens (Human), UniProt Q9BUB5, T344D); assay: MKNK1 kinase high ATP assay (TR-FRET, 2 mM ATP); assay type: biochemical
Method: MKNK1 Kinase High ATP Assay
MKNK1-inhibitory activity at high ATP of compounds of the present invention after their preincubation with MKNK1 was quantified employing the TR-FRET-based MKNK1 high ATP assay as described in the following paragraphs.
(§1) A recombinant fusion protein of Glutathione-S-Transferase (GST, N-terminally) and human full-length MKNK1 (amino acids 1-424 and T344D of accession number BAA 19885.1), expressed in insect cells using baculovirus expression system and purified via glutathione sepharose affinity chromatography, was purchased from Carna Biosciences (product no 02-145) and used as enzyme. As substrate for the kinase reaction the biotinylated peptide biotin-Ahx-[…] (C-terminus in amide form) was used, which can be purchased e.g. from the company Biosyntan (Berlin-Buch, Germany).
(§2) For the assay 50 nL of a 100 fold concentrated solution of the test compound in DMSO was pipetted into a black low volume 384 well microtiter plate (Greiner Bio-One, Frickenhausen, Germany), 2 μL of a solution of MKNK1 in aqueous assay buffer [50 mM HEPES pH 7.5, 5 mM magnesium chloride, 1.0 mM dithiothreitol, 0.005% (v/v) Nonidet-P40 (Sigma)] was added and the mixture was incubated for 15 min at 22° C. to allow pre-binding of the test compounds to the enzyme before the start of the kinase reaction. Then the kinase reaction was started by the addition of 3 μL of a solution of adenosine-tri-phosphate (ATP, 3.3 mM=>final conc. in the 5 μL assay volume is 2 mM) and substrate (0.1 μM=>final conc. in the 5 μL assay volume is 0.06 μM) in assay buffer and the resulting mixture was incubated for a reaction time of 30 min at 22° C. The concentration of MKNK1 was adjusted depending of the activity of the enzyme lot and was chosen appropriate to have the assay in the linear range, typical concentrations were in the range of 0.003 μg/mL. The reaction was stopped by the addition of 5 μL of a solution of TR-FRET detection reagents (5 nM streptavidine-XL665 [Cisbio Bioassays, Codolet, France] and 1 nM anti-ribosomal protein S6 (pSer236)-antibody from Invitrogen [#44921G] and 1 nM LANCE EU-W1024 labeled ProteinG [Perkin-Elmer, product no. AD0071]) in an aqueous EDTA-solution (100 mM EDTA, 0.1% (w/v) bovine serum albumin in 50 mM HEPES pH 7.5).
(§3) The resulting mixture was incubated for 1 h at 22° C. to allow the formation of complex between the phosphorylated biotinylated peptide and the detection reagents. Subsequently the amount of phosphorylated substrate was evaluated by measurement of the resonance energy transfer from the Eu-chelate to the streptavidine-XL. Therefore, the fluorescence emissions at 620 nm and 665 nm after excitation at 350 nm were measured in a TR-FRET reader, e.g. a Rubystar (BMG Labtechnologies, Offenburg, Germany) or a Viewlux (Perkin-Elmer). The ratio of the emissions at 665 nm and at 622 nm was taken as the measure for the amount of phosphorylated substrate.

[2] = biological target: human full-lengt MKNK1 (Homo sapiens (Human), UniProt Q9BUB5, T344D); assay: MKNK1 kinase assay (TR-FRET, 10 μM ATP); assay type: biochemical
Chain of human full-lengt MKNK1 (Q9BUB5 other isoform, or with tags, fused parts or gaps T344D): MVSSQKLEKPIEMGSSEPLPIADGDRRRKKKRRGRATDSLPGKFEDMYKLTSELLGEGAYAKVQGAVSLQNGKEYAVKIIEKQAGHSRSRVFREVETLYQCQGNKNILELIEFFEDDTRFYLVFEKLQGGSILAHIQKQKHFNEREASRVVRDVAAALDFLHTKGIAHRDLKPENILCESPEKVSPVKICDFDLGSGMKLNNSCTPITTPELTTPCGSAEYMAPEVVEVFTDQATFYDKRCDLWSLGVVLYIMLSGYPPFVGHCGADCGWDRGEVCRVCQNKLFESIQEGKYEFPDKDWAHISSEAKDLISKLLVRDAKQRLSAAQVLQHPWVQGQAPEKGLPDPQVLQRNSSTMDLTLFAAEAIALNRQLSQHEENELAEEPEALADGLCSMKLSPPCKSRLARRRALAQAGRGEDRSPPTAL
Text: MKNK1-inhibitory activity of compounds of the present invention was quantified employing the MKNK1 TR-FRET assay as described in the following paragraphs.
as §1, with “human full-lengt” for “human full-length”, “was used” for “was used,”, “e.g. form” for “e.g. from”
as §2, with “16.7 μM=>final” for “3.3 mM=>final”, “10 μM)” for “2 mM)”, “45” for “30”, “0.05 μg/ml.” for “0.003 μg/mL.”
as §3

[3] = read-out: IC50 MKNK1 (2 mM ATP), 15 min preincubation, GST-MKNK1 T344D
[4] = read-out: IC50 MKNK1 (10 μM ATP), 15 min preincubation, GST-MKNK1 T344D
[5] = 15 min preincubation, GST-MKNK1 T344D

Chain of human full-length MKNK1 (Q9BUB5 other isoform, or with tags, fused parts or gaps T344D): as above

O[C@@H]1CCCC[C@@H]1Nc1ccc2ncc(-c3cc4ccccc4o3)n2n1 [Example 5, (1R,2S)-2-{[3-(1-Benzofuran-2-yl)imidazo[1,2-b]pyridazin-6-yl]amino}cyclohexanol]
IC50 [1, 3]: 49 nM | IC50 [2, 4]: 42 nM

O[C@H]1CCC[C@H]1Nc1ccc2ncc(-c3cc4ccccc4o3)n2n1 [Example 3, (1S,2R)-2-{[3-(1-Benzofuran-2-yl)imidazo[1,2-b]pyridazin-6-yl]amino}cyclopentanol]
IC50 [1, 3]: 30 nM | IC50 [2, 4]: 10 nM

OC[C@H]1C[C@H](Nc2ccc3ncc(-c4cc5ccccc5o4)n3n2)C1 [Example 1, (trans-3-{[3-(1-Benzofuran-2-yl)imidazo[1,2-b]pyridazin-6-yl]amino}cyclobutyl)methanol]
IC50 [1, 3]: 11 nM | IC50 [2, 4]: 8 nM

O[C@H]1C[C@H](Nc2ccc3ncc(-c4cc5cnccc5o4)n3n2)C1 [Example 11, trans-3-{[3-(Furo[3,2-c]pyridin-2-yl)imidazo[1,2-b]pyridazin-6-yl]amino}cyclobutanol]
IC50 [1, 3]: 52 nM | IC50 [2, 4]: 14 nM

O[C@H]1C[C@H](CNc2ccc3ncc(-c4cc5ccccc5o4)n3n2)C1 [Example 2, trans-3-({[3-(1-Benzofuran-2-yl)imidazo[1,2-b]pyridazin-6-yl]amino}methyl)-cyclobutanol]
IC50 [1, 5]: 21 nM | IC50 [2, 5]: 9 nM

O[C@H]1CCC[C@@H]1Nc1ccc2ncc(-c3cc4ccccc4o3)n2n1 [Example 6, (1S,2S)-2-{[3-(1-Benzofuran-2-yl)imidazo[1,2-b]pyridazin-6-yl]amino}cyclopentanol]
IC50 [1, 3]: 52 nM | IC50 [2, 4]: 22 nM

O[C@@H]1CCC[C@H]1Nc1ccc2ncc(-c3cc4ccccc4o3)n2n1 [Example 4, (1R,2R)-2-{[3-(1-Benzofuran-2-yl)imidazo[1,2-b]pyridazin-6-yl]amino}cyclopentanol]
IC50 [1, 3]: 41 nM | IC50 [2, 4]: 14 nM

O[C@H]1CC[C@H](Nc2ccc3ncc(-c4cc5ccccc5o4)n3n2)CC1 [Example 10, trans-4-{[3-(1-Benzofuran-2-yl)imidazo[1,2-b]pyridazin-6-yl]amino}cyclohexanol]
IC50 [1, 3]: 31 nM | IC50 [2, 4]: 12 nM

O[C@@H]1CCCC[C@H]1Nc1ccc2ncc(-c3cc4ccccc4o3)n2n1 [Example 9, (1R,2R)-2-{[3-(1-Benzofuran-2-yl)imidazo[1,2-b]pyridazin-6-yl]amino}cyclohexanol]
IC50 [1, 3]: 210 nM | IC50 [2, 4]: 318 nM

O[C@H]1CCCC[C@@H]1Nc1ccc2ncc(-c3cc4ccccc4o3)n2n1 [Example 8, (1S,2S)-2-{[3-(1-Benzofuran-2-yl)imidazo[1,2-b]pyridazin-6-yl]amino}cyclohexanol]
IC50 [1, 3]: 94 nM | IC50 [2, 4]: 126 nM

O[C@@H]1CCC[C@@H]1Nc1ccc2ncc(-c3cc4ccccc4o3)n2n1 [Example 7, (1R,2S)-2-{[3-(1-Benzofuran-2-yl)imidazo[1,2-b]pyridazin-6-yl]amino}cyclopentanol]
IC50 [1, 3]: 66 nM | IC50 [2, 4]: 24 nM
